# Test results: paper PMC7997397, ““Bottom-Up” Strategy for the Identification of Novel Soybean Peptides with Angiotensin-Converting Enzyme Inhibitory Activity” (Journal of Agricultural and Food Chemistry, 2020)
# Like-named read-outs stand apart in the source and are kept apart here. Ends that are not written are not given here. Peptide text beside a SMILES is read from it.
# Tests used:
# [1] = In vitro gastrointestinal digestion with pepsin and pancreatin; type: in vitro ADME; settings: peptide 100 μM; pepsin 1:100 enzyme-to-substrate, pH 2.0, 37 °C, 90 min, then pancreatin 1:50, pH 7.2, 37 °C, 150 min; HPLC-Chip ion trap MS; mean ± s.d. of three independent experiments in triplicate; read-out: degraded after codigestion with pepsin and pancreatin vs undigested peptide
# Protocol: Pepsin solution (4 mg/mL in NaCl) was added to Soy1 and LPYP (100 μM) at a 1:100 enzyme-to-substrate ratio (pH 2.0). The digestion was conducted at 37 °C for 90 min under continuous stirring, and then, the pH was adjusted to 7.2 with 1 M NaOH in order to inactivate the enzyme. Then, pancreatin (4 mg/mL in H2O) was added at a 1:50 enzyme-to-substrate ratio. After digestion, at 37 °C for 150 min, the enzyme was inactivated by heating at 95 °C for 10 min. Further details regarding the analysis are available in the “Supporting Information”.
# Their metabolic propensity to be degraded by peptidases, which are physiologically active along the entire gastrointestinal tract, might dramatically influence the bioactivity of food peptides. The literature provides many studies dealing with the assessment of food bioactive peptide stability to the simulated gastric digestion.[22],[23] In order to in-depth characterize the multifunctional behavior of Soy1 and LPYP, their stability toward the in vitro gastric digestion was assessed using pepsin and pancreatin.
# Figure 1 In vitro gastrointestinal digestion. […]
# In vitro digestion of Soy1 and LPYP. […] Soy1 and LPYP samples undigested and after digestion were analyzed on a SL IT mass spectrometer interfaced with a HPLC- Chip Cube source (Agilent Technologies, Palo Alto, CA, USA). […] A blank was analyzed between samples to ensure
# [2] = target: T1, ACE in human intestinal Caco-2 cells (Homo sapiens, UniProt P12821); experiment: ACE activity cell-based assay (in situ) in Caco-2 cells; settings: nondifferentiated Caco-2 cells 5 × 10^4/well, 0.1–250 μM, 24 h, 37 °C; ACE activity in cell lysates with fluorescent substrate; mean ± s.d. of three independent experiments in triplicate
# T1 construct: endogenous in cells; host or cells: Caco-2 cells (INSERM, Paris)
# T1 sequence (P12821 30-1306): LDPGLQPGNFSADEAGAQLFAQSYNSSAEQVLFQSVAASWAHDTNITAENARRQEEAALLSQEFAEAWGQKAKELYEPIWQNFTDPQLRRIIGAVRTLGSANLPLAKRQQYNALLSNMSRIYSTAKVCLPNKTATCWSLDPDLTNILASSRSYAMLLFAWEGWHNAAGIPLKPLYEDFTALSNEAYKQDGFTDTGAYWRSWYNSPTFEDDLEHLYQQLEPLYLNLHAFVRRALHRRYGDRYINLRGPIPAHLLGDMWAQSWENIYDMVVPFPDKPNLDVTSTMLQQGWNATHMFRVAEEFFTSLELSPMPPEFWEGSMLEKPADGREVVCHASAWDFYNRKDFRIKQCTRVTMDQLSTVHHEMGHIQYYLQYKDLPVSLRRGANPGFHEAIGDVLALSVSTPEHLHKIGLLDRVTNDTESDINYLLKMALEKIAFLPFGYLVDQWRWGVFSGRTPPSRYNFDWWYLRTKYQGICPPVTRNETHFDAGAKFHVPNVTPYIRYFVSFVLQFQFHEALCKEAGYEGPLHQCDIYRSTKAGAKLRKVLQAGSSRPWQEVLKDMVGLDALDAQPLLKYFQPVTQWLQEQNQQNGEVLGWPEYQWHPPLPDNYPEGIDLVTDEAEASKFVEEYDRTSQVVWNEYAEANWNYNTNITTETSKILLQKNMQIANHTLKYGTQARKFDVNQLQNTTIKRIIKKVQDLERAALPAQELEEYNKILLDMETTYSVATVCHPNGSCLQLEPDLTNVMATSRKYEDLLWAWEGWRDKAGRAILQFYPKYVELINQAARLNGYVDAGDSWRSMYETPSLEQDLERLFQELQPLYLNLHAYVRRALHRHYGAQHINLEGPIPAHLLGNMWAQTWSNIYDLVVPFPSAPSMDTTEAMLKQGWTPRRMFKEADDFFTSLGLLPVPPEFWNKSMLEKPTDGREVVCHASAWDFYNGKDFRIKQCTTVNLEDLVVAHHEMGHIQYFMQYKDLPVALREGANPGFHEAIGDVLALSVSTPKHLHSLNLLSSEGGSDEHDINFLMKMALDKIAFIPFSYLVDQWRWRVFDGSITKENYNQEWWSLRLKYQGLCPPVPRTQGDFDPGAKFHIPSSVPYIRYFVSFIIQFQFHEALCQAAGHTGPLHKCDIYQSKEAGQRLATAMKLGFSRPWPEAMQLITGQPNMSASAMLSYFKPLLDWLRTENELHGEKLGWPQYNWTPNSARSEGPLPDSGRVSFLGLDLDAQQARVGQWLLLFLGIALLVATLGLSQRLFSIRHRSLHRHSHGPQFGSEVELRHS
# Protocol: (§1) Soy1 and LPYP were tested on Caco-2 and HK2 cells (5 × 10^4/well in black 96-well plates) in 0.1–250.0 μM concentration ranges or vehicle in growth medium for 24 h at 37 °C. For a 2D cell culture on RADA16-Soy1 and RADA-LPYP hydrogels, Caco-2 cells were seeded on the surface of the abovementioned hydrogels at a density of 5 × 10^4/well. On the next day, the ACE inhibitory activity was measured using an ACE1 Activity Assay Kit (BioVision, Milpitas Blvd., Milpitas, CA, USA) following the manufacturer’s protocol. See the “Supporting Information” for further details on Acer activity cell-based assay.
# (§2) In particular, Caco-2 and HK-2 cells (5 × 10^4/well) were treated with Soy1 and LPYP (0.1–250 μM) overnight. The following day, cells were lysated and the ACE activity was measured directly in the cell lysates using a fluorescent ACE substrate; in this assay, the fluorescent signal is proportional to the enzyme activity.
# (§3) Figure 2 In situ evaluation of the ACE activity. […] Data represent the mean ± s.d. of three independent experiments performed in triplicate. […]
# absence of carryover effects. […]
# ACE activity cell-based assay. […] The next day, The ACE inhibitory activity was measured using the ACE1 Activity Assay Kit (Biovision, Milpitas Blvd., Milpitias, CA, USA) following the manufacture’s protocol. […]
# [3] = target: T2, ACE in human kidney HK-2 cells (Homo sapiens, UniProt P12821); experiment: ACE activity cell-based assay (in situ) in HK-2 cells; settings: for IC50: renal HK-2 cells 5 × 10^4/well, 0.1–250 μM, 24 h, 37 °C, ACE activity in cell lysates with fluorescent substrate, mean ± s.d. of three independent experiments in triplicate
# T2 construct: endogenous in cells; host or cells: HK-2 cells (ATCC)
# T2 sequence (P12821 30-1306): as above
# Protocol: as §1, §2, §3
# absence of carryover effects. The peptides were identified by comparing their retention times, MS profiles, and MS/MS fragmentation spectra with those of authentic standards.
# ACE activity cell-based assay. […] The next day, The ACE inhibitory activity was measured using the ACE1 Activity Assay Kit (Biovision, Milpitas Blvd., Milpitias, CA, USA) following the manufacture’s protocol.
# Briefly, cells were scraped in 30.0 μL of ice-cold ACE lysis buffer and transferred in an ice-cold microcentrifuge tube. […] Total proteins were quantified by Bradford method, and 2.0 μg of proteins (the equivalent of 2 μL) were added to 18.0 μL of ACE lysis buffer in each well in a black 96-well plates with clear bottoms. […] Then, 20.0 μL of 4% of ACE substrate (in assay buffer) was added in each well except the background one and the fluorescence (Ex/Em 330/430 nm) was measured in a kinetic mode for 10 min at 37 °C using […]
# [4] = test system: differentiated Caco-2 cells; settings: 2 h of incubation in the apical side of monolayers; cited from earlier work
# From the text: Mature enterocytes represent the first physiological barrier that bioactive food peptides encounter after ingestion; therefore, their absorption is a dynamic proces ...
# [5] = test system: ACE; settings: read-out: IC50 ACE inhibition in vitro, cited from earlier work
# From the text: It is well-recognized that soybean proteins contain many bioactive peptides exerting multiple health benefits, that is, hypocholesterolemic, antidiabetic, antitumor, and hypotensive activity. […] Moreover, after the hydrolysis of soybean proteins with pepsin, five peptides have been identified showing in vitro and in vivo hypotensive activity. […] Their bl ...
# [6] = soybean peptides reported in the literature
# [7] = peptides from pepsin hydrolysis of soybean proteins
molecule,measurement,setting,value
"IAVPTGVA [Soy1, IAVPTGVA]","metabolised at 4 h, 100 μM",[1],27.7 ± 0.3%
same,IC50,[2],14.7 ± 0.28 µM
same,"relative ACE inhibitory activity, renal (HK-2) vs intestinal (Caco-2) level",[3]; comparison of IC50 values in HK-2 and Caco-2 cells,twofold more active at the renal level than at the intestinal level
same,IC50,[3],6 ± 0.35 µM
same,absorption by differentiated Caco-2 cells,[4],better absorbed than LPYP
LAIPVNKP,IC50,[5]; [6],70 µM
FFL,IC50,[5]; [7],37 µM
LPHF,IC50,[5]; [6],670 µM
CC(C)C[C@H](N)C(=O)N1CCC[C@H]1C(=O)N[C@@H](Cc1ccc(O)cc1)C(=O)N1CCC[C@H]1C(=O)O [LPYP] (H-LPYP-OH),"metabolised at 4 h, 100 μM",[1],28.5 ± 1.4%
same,IC50,[2],5 ± 0.28 µM
same,IC50,[3],6.8 ± 0.2 µM
IYLL [peptide from pepsin hydrolysis of soybean proteins],IC50,[5]; [7],42 µM
SPYP [peptide from soybean glycinin hydrolysed by Monascus purpureus acid proteinase],IC50,[5]; [6],850 µM
VMDKPQG [peptide from pepsin hydrolysis of soybean proteins],IC50,[5]; [7],39 µM
YLAGNQ [peptide from pepsin hydrolysis of soybean proteins],IC50,[5]; [7],14 µM
